Results: PubChem BioAssay AID248 (DTP/NCI, 2004)
“And” between values parts separate entries of the source, which are not always exact repeats. Equal entries are not always repeated. Toxic doses and inconclusive results are not listed. Cut-off read from the data, not from the text of the source: active = T/C of 150% or more; inactive = T/C below 125%.

Tested on: L1210 leukemia ip in BDF1 mice, survival T/C
Experiment: NCI In Vivo Anticancer Drug Screen. Data for tumor model L1210 Leukemia (intraperitoneal) in B6D2F1 (BDF1) mice
Details: endpoint: mean survival time, higher = longer survival
Outline: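 Value reflects the ratio of survival in compound-treated mice to survival in vehicle-treated controls, with both groups carrying the same transplanted tumor.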

[1] = dose: 100.0 mg/kg/injection, schedule: Q01DX001 (ip), vehicle: other
[2] = dose: 200.0 mg/kg/injection, schedule: Q01DX001 (ip), vehicle: other
[3] = dose: 400.0 mg/kg/injection, schedule: Q01DX001 (ip), vehicle: other
[4] = dose: 100.0 mg/kg/injection, schedule: Q01DX001 (ip), vehicle: saline
[5] = dose: 200.0 mg/kg/injection, schedule: Q01DX001 (ip), vehicle: saline
[6] = dose: 400.0 mg/kg/injection, schedule: Q01DX001 (ip), vehicle: saline
[7] = dose: 100.0 mg/kg/injection, schedule: Q01DX009 (ip), vehicle: saline with Tween-80
[8] = dose: 100.0 mg/kg/injection, schedule: Q04DX003 (ip), vehicle: saline with Tween-80
[9] = dose: 200.0 mg/kg/injection, schedule: Q01DX009 (ip), vehicle: saline with Tween-80
[10] = dose: 200.0 mg/kg/injection, schedule: Q04DX003 (ip), vehicle: saline with Tween-80
[11] = dose: 400.0 mg/kg/injection, schedule: Q01DX009 (ip), vehicle: saline with Tween-80
[12] = dose: 400.0 mg/kg/injection, schedule: Q04DX003 (ip), vehicle: saline with Tween-80
[13] = dose: 100.0 mg/kg/injection, schedule: Q01DX009 (ip), vehicle: Klucel (hydroxypropylcellulose) (HPC)
[14] = dose: 200.0 mg/kg/injection, schedule: Q01DX009 (ip), vehicle: Klucel (hydroxypropylcellulose) (HPC)
[15] = dose: 400.0 mg/kg/injection, schedule: Q01DX009 (ip), vehicle: Klucel (hydroxypropylcellulose) (HPC)
[16] = dose: 100.0 mg/kg/injection, schedule: Q01DX001 (ip), vehicle: carboxymethylcellulose (CMC)
[17] = dose: 200.0 mg/kg/injection, schedule: Q01DX001 (ip), vehicle: carboxymethylcellulose (CMC)
[18] = dose: 400.0 mg/kg/injection, schedule: Q01DX001 (ip), vehicle: carboxymethylcellulose (CMC)
[19] = dose: 100.0 mg/kg/injection, schedule: Q04DX003 (ip), vehicle: Klucel (hydroxypropylcellulose) (HPC)
[20] = dose: 200.0 mg/kg/injection, schedule: Q04DX003 (ip), vehicle: Klucel (hydroxypropylcellulose) (HPC)
[21] = dose: 100.0 mg/kg/injection, schedule: Q04DX002 (ip), vehicle: saline
[22] = dose: 200.0 mg/kg/injection, schedule: Q04DX002 (ip), vehicle: saline
[23] = dose: 400.0 mg/kg/injection, schedule: Q04DX002 (ip), vehicle: saline

Measured: T/C

Cc1noc(NS(=O)(=O)c2ccc(N=NC3SC(=S)NC3=O)cc2)c1C (configuration not stated)
inactive: dose: 75.0 mg/kg/injection, schedule: Q01DX001 (ip), vehicle: saline 95 % of control | dose: 150.0 mg/kg/injection, schedule: Q01DX001 (ip), vehicle: saline 98 % of control | dose: 300.0 mg/kg/injection, schedule: Q01DX001 (ip), vehicle: saline 101 % of control

CCCCN(C)CCNc1cc(C)nc(/N=C(\N)Nc2ccc(Cl)c(Cl)c2)n1
inactive: dose: 18.75 mg/kg/injection, schedule: Q01DX009 (ip), vehicle: Klucel (hydroxypropylcellulose) (HPC) 103 % of control | dose: 37.5 mg/kg/injection, schedule: Q01DX009 (ip), vehicle: Klucel (hydroxypropylcellulose) (HPC) 97 % of control

Clc1ccc(CNc2ncnc3[nH]ncc23)cc1
inactive: [1] 100 % of control | dose: 100.0 mg/kg/injection, schedule: Q04DX003 (ip), vehicle: other 104 % of control | [2] 106 % of control | dose: 200.0 mg/kg/injection, schedule: Q04DX003 (ip), vehicle: other 113 % of control | [3] 108 % of control | dose: 400.0 mg/kg/injection, schedule: Q04DX003 (ip), vehicle: other 103 % of control

CCC(CO)Nc1nncc2ccccc12 (configuration not stated)
inactive: [4] 98 % of control | [5] 96 % of control | [6] 104 % of control

CCOC(=O)Nc1cc(NCC(O)CN(C)C)c([N+](=O)[O-])c(N)n1 (configuration not stated)
inactive: dose: 100.0 mg/kg/injection, schedule: Q01DX001 (ip), vehicle: saline with Tween-80 103 % of control | dose: 200.0 mg/kg/injection, schedule: Q01DX001 (ip), vehicle: saline with Tween-80 94 % of control | dose: 400.0 mg/kg/injection, schedule: Q01DX001 (ip), vehicle: saline with Tween-80 101 % of control

CC(=O)/C=C/c1ccco1
inactive: dose: 12.5 mg/kg/injection, schedule: Q01DX009 (ip), vehicle: DMSO 101 % of control | dose: 25.0 mg/kg/injection, schedule: Q01DX009 (ip), vehicle: DMSO 97 % of control | dose: 25.0 mg/kg/injection, schedule: Q04DX003 (ip), vehicle: DMSO 96 % of control | dose: 50.0 mg/kg/injection, schedule: Q01DX009 (ip), vehicle: DMSO 92 % of control | dose: 50.0 mg/kg/injection, schedule: Q04DX003 (ip), vehicle: DMSO 108 % of control | dose: 100.0 mg/kg/injection, schedule: Q04DX003 (ip), vehicle: DMSO 98 % of control

CC(=NC(Cc1ccccc1)C(=O)O)NC(Cc1ccccc1)C(=O)O (configuration not stated)
inactive: dose: 100.0 mg/kg/injection, schedule: Q01DX009 (ip), vehicle: saline 106 % of control | dose: 200.0 mg/kg/injection, schedule: Q01DX009 (ip), vehicle: saline 101 % of control | dose: 400.0 mg/kg/injection, schedule: Q01DX009 (ip), vehicle: saline 100 % of control

O=C(NC(=S)Nc1ccccc1)c1cccc(Br)c1
inactive: dose: 75.0 mg/kg/injection, schedule: Q01DX001 (ip), vehicle: carboxymethylcellulose (CMC) 90 % of control | dose: 150.0 mg/kg/injection, schedule: Q01DX001 (ip), vehicle: carboxymethylcellulose (CMC) 88 % of control | dose: 300.0 mg/kg/injection, schedule: Q01DX001 (ip), vehicle: carboxymethylcellulose (CMC) 96 % of control

Clc1ccccc1OCC1CO1 (configuration not stated)
inactive: [7] 93 % of control | [8] 98 % of control | [9] 100 % of control | [10] 98 % of control | [11] 97 % of control | [12] 103 % of control

CC(=O)Nc1ccc(/C=N/NC(=O)c2ccc(C)cc2)cc1
inactive: dose: 50.0 mg/kg/injection, schedule: Q01DX009 (ip), vehicle: saline with Tween-80 93 % of control | [9] 90 % of control

CCC(=O)OCC1CCC(COC(=O)CC)CC1 (configuration not stated)
inactive: dose: 222.0 mg/kg/injection, schedule: Q01DX Z (ip), vehicle: methylcellulose (MC) 100 % of control | dose: 333.0 mg/kg/injection, schedule: Q01DX Z (ip), vehicle: methylcellulose (MC) 96 % of control | dose: 500.0 mg/kg/injection, schedule: Q01DX Z (ip), vehicle: methylcellulose (MC) 97 % of control

O=[N+]([O-])c1cccc(/C=N/N2CCN(/N=C/c3cccc([N+](=O)[O-])c3)CC2)c1
inactive: [4] 102 % of control | [5] 92 % of control | [6] 96 % of control

O=C(Cc1cccc2ccccc12)N/N=C/c1ccccc1Cl
inactive: [13] 89 % of control and 90 % of control | [14] 92 % of control | [15] 86 % of control and 90 % of control

COc1nc(=O)n(C2CCCO2)cc1Br (configuration not stated)
inactive: [1] 107 % of control | [2] 96 % of control | [3] 98 % of control

CCCCC(O)(CCCC)CC(C)(C)C
inactive: [16] 103 % of control | [17] 92 % of control | [18] 92 % of control

CNc1nc2ccccc2n1C1OC(CO)C(O)C1O (configuration not stated)
inactive: [4] 95 % of control | [5] 98 % of control | [6] 98 % of control

CC(C)(C)OC(=O)N1C2c3ccccc3C1C1C2N=NN1c1ccccc1 (configuration not stated)
inactive: [4] 110 % of control | [5] 95 % of control | [6] 91 % of control

O=C(Nc1scc2c1sc1ccccc12)c1ccccc1
inactive: dose: 100.0 mg/kg/injection, schedule: Q01DX001 (ip), vehicle: Klucel (hydroxypropylcellulose) (HPC) 93 % of control | dose: 200.0 mg/kg/injection, schedule: Q01DX001 (ip), vehicle: Klucel (hydroxypropylcellulose) (HPC) 93 % of control | dose: 400.0 mg/kg/injection, schedule: Q01DX001 (ip), vehicle: Klucel (hydroxypropylcellulose) (HPC) 107 % of control

CCOC(=O)C(C(C)=O)C(CCc1cc(OC)ccc1OC)C(C(C)=O)C(=O)OCC (configuration not stated)
inactive: [4] 109 % of control | [5] 101 % of control | [6] 97 % of control

C=CCNC(=S)Nc1cccc(OC(=O)NC(C)(C)C)c1
inactive: [13] 90 % of control | [14] 90 % of control | [15] 92 % of control

Cc1ccc(Nc2c3ccccc3nc3ccccc23)c(C)c1
inactive: [19] 96 % of control | [20] 100 % of control

Cc1[nH]c(=S)[nH]c(=O)c1CCSC(=N)N
inactive: [4] 108 % of control | [5] 103 % of control

COC(=O)CC(=O)/C(=C/C(C/C=C(\C(=O)CC(=O)OC)C(=O)OC)OC)C(=O)OC (configuration not stated)
inactive: dose: 50.0 mg/kg/injection, schedule: Q01DX001 (ip), vehicle: carboxymethylcellulose (CMC) 103 % of control | [16] 101 % of control | [17] 101 % of control | [18] 100 % of control

CCOC(=O)CN=C(C)OCC
inactive: [7] 100 % of control | [8] 107 % of control | [9] 99 % of control | [10] 97 % of control | [11] 90 % of control | [12] 103 % of control

CCC(C)COC(=O)Nc1cccc(Cl)c1 (configuration not stated)
inactive: [1] 102 % of control | [2] 107 % of control | [3] 105 % of control

c1ccc(NC2C(=C(c3ccccc3)c3ccccc3)N3CCC2CC3)cc1 (configuration not stated)
inactive: [19] 95 % of control | [20] 94 % of control | dose: 400.0 mg/kg/injection, schedule: Q04DX003 (ip), vehicle: Klucel (hydroxypropylcellulose) (HPC) 95 % of control

O=C(NO)c1ccccc1F
inactive: [4] 97 % of control | [5] 110 % of control | [6] 93 % of control

O=C([O-])CO.[Co+3].[NH2-].[NH2-].[NH2-].[NH2-].[NH2-].[O-][Cl+3]([O-])([O-])O
inactive: [21] 103 % of control | [22] 100 % of control | [23] 103 % of control

COC(=O)C1CCC(=O)CC1
inactive: [21] 96 % of control | [22] 101 % of control | [23] 99 % of control

CC(=O)Nc1ccc2c(c1)Cc1cc(N=Cc3ccc4c(c3)OCO4)ccc1-2
inactive: [16] 91 % of control | [17] 104 % of control | [18] 93 % of control

O=S(=O)(c1ccc2ccccc2c1)C1CC1c1ccccc1 (configuration not stated)
inactive: dose: 100.0 mg/kg/injection, schedule: Q01DX001 (ip), vehicle: acetone 92 % of control | dose: 200.0 mg/kg/injection, schedule: Q01DX001 (ip), vehicle: acetone 98 % of control | dose: 400.0 mg/kg/injection, schedule: Q01DX001 (ip), vehicle: acetone 93 % of control
